Results: US5922554A, “Inhibition of cellular uptake of cholesterol” (The Regents of the University of California, priority 1996, dated 1999)

Key:
[1] = test system: fibroblast monolayers; test: Influx/uptake of ^3 H-FC (free cholesterol) from labeled LDL (or plasma, HDL) into normal fibroblast monolayers; format: cell-based, human; design: Emax: dose or concentration left out as unconfirmed; conditions: for FC Influx: LDL-FC 60.2 μg ml^-1, 60 min, 37° C., 30 min preequilibration with inhibitor at: Na-azide 1 mM, NH4-vanadate 1 mM, NEM 2 mM, KNO3 50 mM, progesterone 30 μM, forskolin 30 μM, IBMX 100 μM, chloroquine 20 μM; for effect on LDL FC uptake: Table 3 conditions; for FC Influx, % (PBS only = 100.0): same concentrations and conditions as Table 3 FC influx, 60 min; for effect on uptake of ^3 H-FC from LDL: up to 60 μM; for inhibition at higher concentration (words): up to 100 μM
[2] = test system: fibroblasts; conditions: Hokland et al. 1993; cited from earlier work
[3] = test system: LDL-receptor deficient cells (GM 2000 line); test: Influx of ^3 H-FC from LDL into LDL-receptor-deficient fibroblasts (GM 2000)
[4] = test system: fibroblast monolayers; test: Cholesterol efflux from ^3 H-cholesterol labeled fibroblasts to plasma; format: cell-based, human
Description: Fibroblast monolayers were equilibrated with ^3 H-FC-labeled native plasma or with isolated ^3 H-labeled LDL, as specified for each experiment. Following incubation, the dishes were washed with albumin-complete PBS and then (×4) with complete PBS. They were then incubated for 3 min with unlabeled plasma or lipoprotein fractions and the rate of appearance of radioactivity in the medium determined. Samples of medium (100 μl) were immediately chilled in ice water and centrifuged (10 min, 2000× g) at 0-2° C. ^3 H-cholesterol radioactivity in the supernatant was either assayed directly, or fractionated by agarose gel electrophoresis. FC efflux was linear as previously reported (Kawano et al., Biochemistry, 32: 5025-5028 (1993)).
For electrophoresis, 20 μl portions of labeled medium were added to strips of 0.75% w/v agarose in 0.025M barbital buffer (pH 8.6) and separated as previously described (Fielding et al., Biochemistry, 30: 8551-8557 (1991)). 2.5 mm gel fractions were then collected, and radioactivity measured. The location of major lipoprotein classes was determined from strips run simultaneously with whole native plasma equilibrated (60 min, 37° C.) with ^3 H-FC.
^c Percent loss of label from cells prelabeled (10 min, 37° C.

[5] = test system: fibroblast monolayers; test: Transfer of intracellular ^3 H-FC to the cell surface (cholesterol oxidase accessibility); format: cell-based, human; conditions: for % transfer of intracellular ^3 H-FC to the cell surface, relative to rate in absence of inhibitor: NEM 2 mM, KNO3 50 mM, nocodazole, brefeldin A, vinblastine 40 μM, pulse labeled 2 min 31° C., then 30 min 31° C.
Description: This assay utilized the finding (see Example 1) that only FC in the caveolar fraction of the plasma membrane fraction was modified by cholesterol oxidase in unfixed fibroblast monolayers.
The rate at which intracellular LDL-derived ^3 H-FC became accessible at the cell surface was measured as follows. Cell monolayers were labeled with ^3 H-FC LDL under the conditions shown for each experiment. Unbound and adsorbed LDL were removed as described above. In some experiments metabolic inhibitors of different transport steps were then added for 30 min at 15° C. […] Cholesterol oxidase (Boehringer-Manheim, Indianapolis, Ind., USA) was added in PBS to a final concentration of 1 U ml^-1. Incubation was for 4 h at 0° C. The cells were washed with ice-cold PBS, and extracted with 0. 1N NAOH. Cell total lipid was extracted with chloroform-methanol (1:1 v/v). […] .
Fibroblast monolayers were prelabeled with FC-labeled LDL for 2 min at 31° C. Medium and surface-bound labeled LDL were removed as described above. The cells were incubated with inhibitors of intracellular transport for 30 min at 15° C. Movement of FC label to the cell surface remained negligible (FIG. 11).
^a Relative to rate in the absence of inhibitor. Values are expressed

[6] = test system: fibroblast monolayers; test: D2O-Ficoll density gradient fractionation of ^3 H-FC labeled fibroblasts; format: cell-based, human; conditions: clathrin fraction d 1.12 g ml^-1; NEM 2 mM
Description: Early endosomal vesicles were labeled with LDL-derived ^3 H-FC by a modification of procedures described by Woodman & Warren (1991) J. Cell Biol., 112:1133-1141. Fibroblast monolayers in 10 cm dishes were washed in ice-cold PBS. The cells were labeled by incubation (2 h, 4° C.) with ^3 H-FC LDL. The monolayers were washed in PBS and brought to 31° C. for 0-15 min. The cells were then quickly chilled on ice, and cold unlabeled LDL was added (15 min, 4° C.) to displace any remaining surface-bound labeled LDL and all subsequent steps were carried out at 0-4° C.
Cells from three 10 cm dishes were used for each gradient. Monolayers were washed with 140 mM sucrose, 0.5 mM MgCl2, 1 mM EGTA, 20 mM 2-[N-morpholino]ethanesulfonic acid (MES), 70 mM potassium acetate, pH 6.6 (`vesicle buffer`) (Woodman & Warren, supra.). The cells were scraped from the dishes. Dithiothreitol (1 mm) and protease inhibitors (PMSF, 200 μg ml^-1; benzamidine 0.5 mM; soybean trypsin inhibitor 10 μg ml^-1; leupeptin 1 μg ml^-1) were added. The cells were broken with a Dounce homogenizer (15 strokes) and the homogenate centrifuged at 500× g for 5 min. Ribonuclease A (50 μg ml^-1) was added. After 30 min a second centrifugation was carried out (7000× g, 30 min). Supernatant (~2 ml) was layered on a 10 ml continuous gradient of 2% Ficoll-9% D2 O to 20% Ficoll-90% D2 O in vesicle buffer containing 1 mM dithiothreitol. Centrifugation in a Beckman SW41 rotor was carried out at 80,000× g for 16 h. Fractions (~0.6 ml) were collected dropwise and the distribution of FC label determined. Because of slight variation in fraction size between gradients, data were normalized to 20 fractions for comparison between experiments. Solution density was determined gravimetrically using 100 μl portions of each fraction. The density of a given fraction was reproducible ±0.5% between experiments.
Fibroblast monolayers were incubated with ^3 H-FC LDL for 30 min at 31° C. to predominantly label the intermediate density vesicle fraction. Cell surface LDL was removed as described above. […]

[7] = Homo sapiens, Fibroblast, read-out: Influx of 3H-FC, % Remaining

Compound: CC(C)Cn1c(=O)n(C)c(=O)c2[nH]cnc21 [IBMX, isobutyl methylxanthine]
- LDL-FC influx (discussion, words) [1]: unaffected
- inhibition of LDL-FC pathway (summary, words) [1]: not inhibited
- FC Influx [1]: 1.46 ± 0.04 µg
- effect on LDL FC uptake [1]: no effect
- FC Influx, % (PBS only = 100.0) [1]: 110.8%
- transfer of newly-synthesized cholesterol to plasma membrane [2]: stimulated

Compound: sodium heparin
- inhibition of influx of FC from LDL ([1]; heparin 0.1 mg/ml, normal cells, LDL 150 μg FC ml^-1, 10 min 37° C.): Approximately 80%
- inhibition of influx of FC from LDL ([3]; heparin 0.1 mg/ml, GM 2000 cells): Approximately 80%

Compound: O=[N+]([O-])[O-].[K+] [KNO3]
- inhibition of LDL-FC pathway (summary, words) [1]: inhibited
- time course of inhibition of ^3 H-FC transfer compared with NEM (FIG. 8) ([1]; 50 mM KNO3, data not shown): comparable time course
- FC Influx [1]: 0.28 ± 0.02 µg
- inhibition of uptake of free cholesterol from LDLs (summary) ([1]; NEM or KNO3, Example 1, FIG. 8): > 80%
- FC Influx, % (PBS only = 100.0) [1]: 21.0%
- initial rate of efflux of FC from prelabeled cells to plasma [4]: increased several-fold
- transport of intracellular ^3 H-FC to the cell surface/caveolae [5]: inhibited the return of FC to the cell surface, but less effectively than did nocodazole
- % transfer of intracellular ^3 H-FC to the cell surface, relative to rate in absence of inhibitor [5]: 70 ± 4%

Compound: [N-]=[N+]=[N-].[Na+] [Na-azide]
- inhibition of LDL-FC pathway (summary, words) [1]: not inhibited
- FC Influx [1]: 1.18 ± 0.02 µg
- effect on LDL FC uptake [1]: without effect
- FC Influx, % (PBS only = 100.0) [1]: 89.5%

Compound: C[C@H]1CCC/C=C/[C@@H]2C[C@H](O)C[C@H]2[C@H](O)/C=C/C(=O)O1 [Brefeldin A]
- inhibition of LDL-FC pathway (summary, words) [1]: not inhibited
- effect on uptake of ^3 H-FC from LDL [1]: without effect
- transport of intracellular ^3 H-FC to the cell surface/caveolae [5]: unaffected
- % transfer of intracellular ^3 H-FC to the cell surface, relative to rate in absence of inhibitor [5]: 95 ± 5%

Compound: [3H]C1C([3H])[C@@]2(C)C(=CC[C@H]3[C@@H]4CC[C@H]([C@H](C)CCCC(C)C)[C@@]4(C)CC[C@@H]32)C[C@H]1O (stereo partly shown) [^3 H-FC, 1,2-^3 H-cholesterol]
- cholest-4-en-3-one fraction of total label ([5]; 0-4° C., 4 experiments): 0.8±0.2%
- t1/2 of increase in oxidized FC (transfer to cell surface) ([5]; 31° C., FIG. 11): ~ 2 min
- internalized FC localized to oxidase-sensitive fraction ([5]; after 2 min pulse label, 31° C.): about 40%

Compound: C=C1C(C)C2C(Cc3ccccc3)NC(=O)C23C(OC(C)=O)/C=C/C(C)(O)C(=O)C(C)CC=CC3C1O (stereo not shown) [Cytochalasin D]
- inhibition of LDL-FC pathway (summary, words) [1]: inhibited
- activity at 40 µM [1, 7]: 38 ± 2%
- inhibition at 40 µM ([1]; Homo sapiens, Fibroblast, read-out: reduction of uptake of ^3 H-FC from LDL (average)): 65%
- inhibition at higher concentration (words) ([1]; listed as Cytochalasin): No greater inhibition
- inhibition at higher concentration (words) ([1]; listed as cytochalasin D): no increase in inhibition
- transport of intracellular ^3 H-FC to the cell surface/caveolae [5]: no effect
- FC label in density gradient [6]: A similar result

Compound: CC[C@]1(O)C[C@@H]2CN(CCc3c([nH]c4ccccc34)[C@@](C(=O)OC)(c3cc4c(cc3OC)N(C)[C@H]3[C@@](O)(C(=O)OC)[C@H](OC(C)=O)[C@]5(CC)C=CCN6CC[C@]43[C@@H]65)C2)C1 [Vinblastine]
- inhibition of LDL-FC pathway (summary, words) [1]: not inhibited
- effect on uptake of ^3 H-FC from LDL [1]: without effect
- transport of intracellular ^3 H-FC to the cell surface/caveolae [5]: unaffected
- inhibition at 40 µM ([5]; Homo sapiens, Fibroblast, read-out: % transfer of intracellular ^3 H-FC to the cell surface, relative to rate in absence of inhibitor): 100 ± 2%

Compound: CC[C@@]1([C@@H]2O[C@@H]([C@H]3O[C@@](O)(CO)[C@H](C)C[C@@H]3C)C[C@@H]2C)CC[C@H]([C@]2(C)CC[C@]3(C[C@H](O)[C@@H](C)[C@@H]([C@@H](C)[C@@H](OC)[C@H](C)C(=O)O)O3)O2)O1 [Monensin]
- inhibition of LDL-FC pathway (summary, words) [1]: inhibited
- effect on LDL FC uptake [1]: effective in reducing the selective uptake of FC from LDL
- inhibition at higher concentration (words) [1]: no increase in inhibition
- FC label in density gradient [6]: A similar result
- selective uptake of FC from LDL, LDL-receptor deficient cells ([3]; GM2000): Comparable results

Compound: C=C[C@@]1(C)CC(=O)[C@]2(O)[C@@]3(C)[C@@H](O)CCC(C)(C)[C@@H]3[C@H](O)[C@H](OC(C)=O)[C@@]2(C)O1 [Forskolin]
- LDL-FC influx (discussion, words) [1]: unaffected
- inhibition of LDL-FC pathway (summary, words) [1]: not inhibited
- FC Influx [1]: 1.39 ± 0.01 µg
- effect on LDL FC uptake [1]: no effect
- FC Influx, % (PBS only = 100.0) [1]: 105.3%
- transfer of newly-synthesized cholesterol to plasma membrane [2]: stimulated

Compound: CC(=O)O[C@H]1C(=O)[C@@]2(C)[C@H]([C@H](OC(=O)c3ccccc3)[C@]3(O)C[C@H](OC(=O)[C@H](O)[C@@H](NC(=O)c4ccccc4)c4ccccc4)C(C)=C1C3(C)C)[C@]1(OC(C)=O)CO[C@@H]1C[C@@H]2O [taxol]
- inhibition of LDL-FC pathway (summary, words) [1]: not inhibited
- effect on uptake of ^3 H-FC from LDL [1]: without effect

Compound: [NH4+].[O]=[V](=[O])[O-] [NH4 -vanadate]
- inhibition of LDL-FC pathway (summary, words) [1]: not inhibited
- FC Influx [1]: 1.36 ± 0.08 µg
- effect on LDL FC uptake [1]: without effect
- FC Influx, % (PBS only = 100.0) [1]: 103.2%

Compound: CCN(CC)CCCC(C)Nc1ccnc2cc(Cl)ccc12 (stereo not shown) [Chloroquine]
- LDL-FC influx (discussion, words) [1]: no effect
- FC Influx [1]: 1.34 ± 0.04 µg
- FC Influx, % (PBS only = 100.0) [1]: 102.3%

Compound: COC(=O)Nc1nc2ccc(C(=O)c3cccs3)cc2[nH]1 [Nocodazole]
- inhibition of LDL-FC pathway (summary, words) [1]: not inhibited
- activity at 60 µM ([1]; Homo sapiens, Fibroblast, cytochalasin D 40 μM, monensin 40 μM, nocodazole 60 μM, bafilomycin A1 45 μM, means ±1 SD of three experiments, read-out: Influx of 3H-FC, % Remaining): 101 ± 6%
- effect on uptake of ^3 H-FC from LDL [1]: without effect
- transport of intracellular ^3 H-FC to the cell surface/caveolae [5]: reduced
- transport of the vesicles to the plasma membrane (summary, words) [5]: inhibited
- % transfer of intracellular ^3 H-FC to the cell surface, relative to rate in absence of inhibitor [5]: 40 ± 1%

Compound: CO/C1=C\C(C)=C\[C@@H](C)[C@@H](O)[C@@H](C)C/C(C)=C/C=C/[C@H](OC)[C@@H]([C@@H](C)[C@@H](O)[C@H](C)[C@@]2(O)C[C@@H](O)[C@H](C)[C@@H](C(C)C)O2)OC1=O [Bafilomycin A1]
- inhibition of LDL-FC pathway (summary, words) [1]: inhibited
- activity at 45 µM [1, 7]: 70 ± 4%
- Emax ([1]; Homo sapiens, Fibroblast, read-out: maximal effect on uptake of FC from LDL): 30%
